{
  "source": "patent US20250222119A1",
  "about": "“ENGINEERING OF MULTIFUNCTIONAL PEPTIDES FOR CONTROLLED DRUG DELIVERY” (The Johns Hopkins University, priority 2022, published 2025)",
  "key": {"[1]": {"system": "normotensive Dutch Belted rabbits", "assay": "Rabbit IOP measurements after intracameral injection or topical dosing", "type": "in vivo", "conditions": "single intracameral injection", "protocol": "For the ICM injection procedure, rabbits were anesthetized with ketamine/xylazine and received topical anesthesia with 0.5% proparacaine hydrochloride. […] After the procedure, topical bacitracin-neomycin-polymyxin ophthalmic ointment was applied to both eyes to prevent infection and dry eyes. […] The IOP were measured immediately before the topical dosing (0 h), and at 2, 4, 6 and 8 h after the eyedrop administration."}, "ARPE-19 cells": {"system": "ARPE-19 cells", "assay": "Cell-penetration assay with biotinylated peptides in induced and non-induced ARPE-19 cells", "type": "cell-based", "conditions": "C-terminal biotinylated peptide 100 μM, 6 h, 37° C.", "protocol": "Four 96 well plates per group were seeded at 0.01×10^6 cells/well. ARPE-19 cells were either cultured with DMEM:F12 medium containing 10% FBS according to protocol provided by the vendor (non-induced) or cultured in DMEM high glucose, pyruvate media with […] of ferric ammonium citrate (Wolkow, N. et al., Exp Eye Res 128, 92-101, (2014)) for 2 months (induced) (Kim, Y. C. et al. Drug Deliv Transl Res, doi:10.1007/s13346-021-00987-6 (2021)). The expression of melanin was confirmed visually with bright field microscopy and by measuring absorbance at 475 nm (>0.4 a.u., not shown). Within each plate, 12 wells were randomly selected to quantify the cell numbers with an automated cell counter (Countess 3 Automated Cell Counter, Thermo Fisher) for normalization in the cell uptake study. Next, 100 μL (100 μM in pH 6.5 PBS) of each of the 127 C-terminal biotinylated peptides was added to n=3 wells for both the induced and non-induced ARPE-19 cells for 6 h at 37° C. The cells were then washed thoroughly 5 times with PBS solution to remove extracellular peptide. To quantify cell-associated peptides, the cells were lysed with 100 μL of RIPA lysis buffer at 4 C for 48 h. […] The mean intracellular concentration values were grouped by cell types (induced or non-induced), and the two-sample Wilcoxon test (Mann-Whitney) was calculated using the R function wilcox.test. Intracellular concentration values were also plotted against experimental melanin binding and the relationship was quantified using a simple linear model and its corresponding R^2.\nIt was next characterized how the predicted cell-penetrating properties of the peptides affected cell uptake in a retinal pigment epithelium (RPE) cell line (ARPE-19). ARPE-19 cells were cultured using standard methods (non-induced, n=3) and using culture conditions that induce melanin production (induced, n=3) (Kim, Y. C. et al., Drug Deliv Transl Res, doi:10.1007/s13346-021-00987-6 (2021))."}},
  "data": [
    {"molecule": "Brc1c(NC2=NCCN2)ccc2nccnc12", "note": "[brimonidine]", "values": [
      {"measurement": "time for the average ΔIOP to return to baseline", "setting": "[1]", "value": 8, "unit": "days"},
      {"measurement": "peak reduction in IOP from baseline (ΔIOP)", "setting": "[1]; at 2 days, n=5", "value": "−2.6±1.65", "unit": "mmHg"}
    ]},
    {"molecule": "YGRKKRRQRRR [TAT47-57]", "values": [
      {"measurement": "cell uptake (intracellular peptide concentration)", "setting": "ARPE-19 cells; induced (melanin-producing) ARPE-19 cells", "value": "478±20.8", "unit": "pmol/100K cells"},
      {"measurement": "cell uptake (intracellular peptide concentration)", "setting": "ARPE-19 cells; non-induced ARPE-19 cells", "value": "58.7±7.43", "unit": "pmol/100K cells"}
    ]},
    {"molecule": "FSGKRRKRKPR [HR97]", "values": [
      {"measurement": "cell uptake (intracellular peptide concentration)", "setting": "ARPE-19 cells; non-induced ARPE-19 cells", "value": "82.5±15.8", "unit": "pmol/100K cells"}
    ]}
  ]
}
